Source: patent US5990346A, “Prostaglandins and processes for production thereof” (Teijin Limited, priority 1995, dated 1999)

Assays:
[1] = system: THP-1 cells (cell migration caused by MCP-1); assay: Inhibitory activity of cell migration caused by MCP-1 (microchemotaxis chamber); type: cell-based; settings: recombinant human MCP-1 20 ng/ml, 37° C.
Description: Measurement of Inhibitory Activity of Cell Migration Caused by MCP-1
To evaluate the activity of the test compounds listed in the following table in inhibiting cell migration, the cell migration caused by the monocyte chemotactic protein MCP-1/MCAF was measured using human premonocyte-derived leukemia cells THP-1 (ATCCTIB203) as migrating cells and the method of FALK et al. (J. Immunol. Methods, vol. 33, pp. 239 to 247 (1980)) as follows. That is, to the upper chamber (200 μl) of a 96-well microchemotaxis chamber (made by Neuroprobe Co.) was added 2×10^6 /ml THP-1 cells (10% fetal calf serum (FCS) containing RPMI-1640 medium (made by Flow Laboratories Co.), while to the lower chamber (35 μl) was placed recombinant human MCP-1 (made by Peprotech Co.) diluted by the same solution to give a final concentration of 20 ng/ml. Between the two chambers, a polycarbonate filter (pore size 5 μm, PVP-free, made by Neuroprobe Co.) was affixed. Incubation was performed at 37° C. in the presence of 5% CO2 for 2 hours. The filter was taken out and the cells migrating to the lower surface of the filter were immobilized and stained by a DiffQuick solution (made by Kokusai Shiyaku Co.) Next, a Breedmeter (made by Molecular Device Co.) was used for measurement at a measurement wavelength of 550 nm and the mean value of three wells was found and used as an indicator of the number of migrating cells. At this time, the test compound was added to the upper chamber together with THP-1 cells in various concentrations to find the cell migration inhibitory activity. The cell migration inhibition % was found by dividing the (number of migrating cells caused by MCP-1 added to the lower chamber in the case of addition of the test compound to the upper chamber)-(number of migrating cells in the case of no test compound added to the upper chamber and no MCP-1 added to the lower chamber) by (number of migrating cells caused by MCP-1 added to the lower chamber in the case of no test compound added to the upper chamber)-(number of migrating cells in the case of no test compound added to the upper chamber and no MCP-1 added to the lower chamber).

[2] = system: vascular smooth muscle cells (cell migration caused by PDGF); assay: Inhibitory activity of cell migration caused by PDGF (Transwell chamber); type: cell-based; settings: human PDGF 10 ng/ml, 37° C., 6 hours
Description: Measurement of Inhibitory Activity of Cell Migration Caused by PDGF
To evaluate the activity of the test compounds listed in the following table to inhibit cell migration caused by PDGF, the migrating cells caused by human platelet derived growth factor (PDGF) were measured in the following way using the vascular smooth muscle cells derived from normal human arteries (made by Kurabo) and according to the method of MaCarthy et al. (J. Cell. Biol. 97, 772-777 (1983)). That is, a Transwell Chamber (Costar Co., registered trademark) was used to measure the inhibitory action. The chamber was divided into two layers, upper and lower, by a 8 μm pore size membrane filter (PVP-free polycarbonate filter, Nucleopore Co., registered trademark). […] The cells on the upper surface of the filter were removed by wiping with a cotton swab and the cells that had migrated to the lower surface of the filter were counted under a high output microscope (×200). Usually, five fields were counted per filter. […]

[3] = system: thickening of intima of carotid artery of rat; assay: Thickening of intima of carotid artery of rat due to balloon catheter; type: in vivo, Male Wistar rats; settings: 3.2 μg/rat/hr subcutaneously
Description: Thickening of Intima of Carotid Artery of Rat Due to Balloon Catheter
The test was performed in the following manner in accordance with the method of Crose et al. (Lab. Invest., vol. 49, p. 206, 1983). Male Wistar rats having a body weight of 300 to 350 g were used. The neck of each rat was opened under anesthesia by sodium pentobarbitol, then a balloon catheter (Fogarty, 2F) was inserted from the right external carotid artery, until the starting portion of the common carotid artery. The balloon was expanded by physiological saline to such an extent causing a light resistance, then the catheter was pulled out in that state up to the carotid artery to give trauma to the intima. This procedure was repeated three times, then the catheter was withdrawn and the external carotid artery was sewn up. After 14 days, the chest was opened under anesthesia by diethyl ether, refluxing was performed from the aorta by a Carnoa solution (methanol:chloroform:acetic acid=6:3:1), then the right common carotid artery was excised and immobilized by neutral formalin solution. The immobilized carotid artery was dyed by Elasticavan Gieson dye, then the areas of the Media and thickened portion of the Intima were measured by an image resolution device (LUZEX2D). […]

[4] = system: platelets (platelet aggregation); assay: Inhibitory activity of platelet aggregation in rats; type: cell-based, Wistar rats (male); settings: rat platelet rich plasma; 100 μM adenosine 2-phosphoric acid (5 μl) induced; 37° C.; read-out: Activity Suppressing Platelet Aggregation (Rats) IC50
Description: Measurement of Inhibitory Activity of Platelet Aggregation in Rats
Wistar rats (male, approximately 400 g) were made to fast for 1 day, then the entire blood was taken from the abdominal artery under anesthesia by ether. To this was added a 3.8% aqueous solution of sodium citrate in a 1/10 amount followed by immediate mixture. This was centrifuged at 1000 rpm for 10 minutes. The top layer was used as the platelet rich plasma. The bottom layer was centrifuged at 3000 rpm for 10 minutes and the top layer was used as the platelet poor plasma. The platelet rich plasma was diluted by the platelet poor plasma to give a platelet count of […]. This was used for the measurement. Note that the platelets were measured using an automatic blood cell counter MEK-4500 (Nihon Koden). The platelet aggregation was measured by measuring the turbidity using an NBS HEMATRACER 801 (M. C. Medical). 90 μl of the platelets were placed in cuvettes, then 5 μl of the different test compounds were added to give the target final concentration, then these were heated for 1 minute at 37° C., then 5 μl of an aqueous solution of 100 μM adenosine 2-phosphoric acid (M. C. Medical) was added to cause platelet aggregation. The activity inhibiting aggregation was found from the following formula: […]
Aggregation inhibiting rate (%)
={1-(maximum change in turbidity at time of addition of test compound)
.div.(maximum change in turbidity at time of no addition of test compound)}

In the case of CCCC[C@@H](C)C[C@H](O)/C=C/[C@@H]1C(SCCCCCC(=O)O)=C(C)C[C@H]1O, the IC50 ([1]; Homo sapiens, THP-1, 2 h) is reported as 72 nM.

For CCCCCC1=C(SCCCCCC(=O)OC)[C@@H](/C=C/[C@@H](O)C[C@H](C)CCCC)[C@H](O)C1, the IC50 ([1]; Homo sapiens, THP-1, 2 h) was 450 nM.

Compound CCCC[C@@H](C)C[C@H](O)/C=C/[C@@H]1C(SCCCCCC(=O)OC)=C(CCC(C)(C)C)C[C@H]1O has an IC50 ([1]; Homo sapiens, THP-1, 2 h) of 600 nM.

CCCC[C@@H](C)C[C@H](O)/C=C/[C@@H]1C(SCCCCCC(=O)OC)=C(C(F)(F)F)C[C@H]1O gave an IC50 ([1]; Homo sapiens, THP-1, 2 h) of 2500 nM.

Compound CCCC[C@@H](C)C[C@H](O)/C=C/[C@@H]1C(SCCCCCC(=O)OC)=C(C=O)C[C@H]1O has an IC50 ([1]; Homo sapiens, THP-1, 2 h) of 190 nM.

CCCC[C@@H](C)C[C@H](O)/C=C/[C@@H]1C(SCCCCCC(=O)OC)=C(C(=O)OC)C[C@H]1O showed an IC50 ([1]; Homo sapiens, THP-1, 2 h) of 470 nM.

In the case of CCCC[C@@H](C)C[C@H](O)/C=C/[C@@H]1C(SCCCCCC(=O)OC)=C(C(C)=O)C[C@H]1O, the IC50 ([1]; Homo sapiens, THP-1, 2 h) is reported as 210 nM.

Work on COC(=O)CCCCCSC1=CC[C@@H](O)[C@@H]1/C=C/[C@@H](O)Cc1ccccc1 yielded an IC50 ([1]; Homo sapiens, THP-1, 2 h) of 380 nM.

For COC(=O)CCCCCSC1=C(C)C[C@@H](O)[C@@H]1CCC(O)Cc1ccccc1 (some centres unmarked), the IC50 ([1]; Homo sapiens, THP-1, 2 h) was 120 nM.

Work on COC(=O)CCCCCSC1=C(C2CC2)C[C@@H](O)[C@@H]1/C=C/C(O)Cc1ccccc1 (single isomer, unassigned) yielded an IC50 ([1]; Homo sapiens, THP-1, 2 h) of 200 nM.

In the case of COC(=O)CCCCCSC1=C(C)CCC1/C=C/[C@@H](O)Cc1ccccc1 (single isomer, unassigned), the IC50 ([1]; Homo sapiens, THP-1, 2 h) is reported as 15 nM.

Compound COC(=O)CCCCCCC1=C(C)C[C@@H](O)[C@@H]1/C=C/C(O)Cc1ccccc1 (single isomer, unassigned) has an IC50 ([1]; Homo sapiens, THP-1, 2 h) of 65 nM.

For COC(=O)COCCCSC1=C(C)C[C@@H](O)[C@@H]1/C=C/C(O)Cc1ccccc1 (single isomer, unassigned), the IC50 ([1]; Homo sapiens, THP-1, 2 h) was 360 nM.

CC1=C(SCCCCCC(=O)O)[C@@H](/C=C/C(O)Cc2ccccc2)[C@H](O)C1 (single isomer, unassigned) [Example 34] gave an IC50 ([1]; Homo sapiens, THP-1, 2 h) of 16 nM and an IC50 [2] of 73 nM.

COC(=O)CCCCCSC1=C(C)C[C@@H](O)[C@@H]1/C=C/C(O)Cc1ccccc1 (single isomer, unassigned) [drawing 92] showed an IC50 ([1]; 2 hours) of 210 nM.

In the case of COC(=O)CCCCCSC1=C(C)C[C@@H](O)[C@@H]1/C=C/C(O)Cc1ccccc1 (single isomer, unassigned) [drawing 93], the IC50 ([1]; 2 hours) is reported as 10 nM.

In the case of COC(=O)CCCCCSC1=C(C)C[C@@H](O)[C@@H]1/C=C/C(O)Cc1ccccc1 (single isomer, unassigned) [drawing 100], the IC50 [2] is reported as 81 nM.

With CCCC[C@@H](C)C[C@H](O)/C=C/[C@@H]1C(SCCCCCC(=O)OC)=CC[C@H]1O [Example 28, methyl (11R,12S,13E,15S,17R)-11,15-dihydroxy-17,20-dimethyl-7-thiaprosta-8,13-dienoate] the “Intima/media (Average ± standard error)” value ([3]; 3 days before to 11 days after surgery, measured after 14 days, control 0.935 ± 0.377) was 0.702 ± 0.241 and the “Suppression Rate (intima thickening suppression rate)” value ([3]; (1-T/C)×100, vs control group) was 25%.

CCCC[C@@H](C)C[C@H](O)/C=C/[C@@H]1C(SCCCCCC(=O)OC)=C(C)C[C@H]1O [drawing 82] gave an IC50 ([1]; Homo sapiens, THP-1, 2 h) of 26 nM.

With CCCC[C@@H](C)C[C@H](O)/C=C/[C@@H]1C(SCCCCCC(=O)OC)=CC[C@H]1O [drawing 89] the IC50 ([1]; Homo sapiens, THP-1, 2 h) was 13 nM.

In the case of CCCC[C@@H](C)C[C@H](O)/C=C/[C@@H]1C(SCCCCCC(=O)O)=CC[C@H]1O [drawing 90], the IC50 ([1]; Homo sapiens, THP-1, 2 h) is reported as 150 nM.

CCCC[C@@H](C)C[C@H](O)/C=C/[C@@H]1C(SCCCCCC(=O)OC)=C(C)C[C@H]1O [drawing 103] showed an IC50 [4] of 4500 nM.

In the case of CCCC[C@@H](C)C[C@H](O)/C=C/[C@@H]1C(SCCCCCC(=O)OC)=CC[C@H]1O [drawing 104], the IC50 [4] is reported as 760 nM.

CCCC[C@@H](C)C[C@H](O)/C=C/[C@@H]1C(SCCCCCC(=O)O)=CC[C@H]1O [drawing 105] was tested, and the IC50 [4] was 2200 nM.
